Measurements as given in patent EP0443996B1, “Esters of (R)(-)-carnitine and acyl (R)(-)-carnitines with beta-hydroxybutyric acid and pharmaceutical compositions containing them for inhibiting neuronal degeneration, liver proteolysis and for the treatment of coma” (Sigma-Tau Industrie Farmaceutiche Riunite S.p.A., priority 1990, dated 1991).

Assays:
[1] = tested on: acetaminophen (paracetamol)-induced hepatic damage; assay: Protection against acetaminophen (paracetamol)-induced hepatic damage, serum transaminases; type: in vivo, Male Wistar rats; settings: SGOT and SGPT in blood serum; 101 mg/kg body weight orally 1, 8 and 24 hours after paracetamol 1 g/kg per os; sacrifice at 32 hours; with respect to the control animals
Description: Male Wistar rats weighing 200-250 g (15 rats/group) that had been keept fasting for at least 12 hours, were administered a single dose of paracetamol (1 g/kg body weight, per os). 100 g paracetamol were dissolved in 1000 ml of 5% (w/v) carboxymethylcellulose suspension in water. […] 101 mg ST 784/kg body weight were administered orally (as aqueous solution) 1, 8 and 24 hours, respectively, following paracetamol administration. The animals were sacrificed 32 hours following paracetamol administration.
Transaminases (SGOT and SGPT) were measured in blood serum. ST 784 provoked a decrease in transaminases exceding 60% ([…]) with respect to the control animals.

post-oligaemic rats [2] = assay: Cerebral oedema upon brain excision 77 hours post-oligohaemia; type: in vivo, Sprague-Dawley (Iffa Credo) male rats; settings: survivors
Description: (§1) The study was conducted with a view to assessing the therapeutical effect of ST 687 administered i.p. to rats immediately after the effect of a transient forebrain oligohaemia in the experiment animals were detected. In particular, the propensity of post-oligaemic rats to develop conditioning was studied in a one-trial passive avoidance task. Concurrently, the neurologic deficit during a 3-day period following the ischaemic insult was assessed, and finally the extent of the oedema was assessed by measuring the water content of the cerebral tissue.
(§2) In the experiments Sprague-Dawley (Iffa Credo) male rats weighing 230-250 g were used, that had been caged (5 rats/cage) under conditions of controlled temperature (22°C±1°C), 50% relative humidity and 12-hours dark-light cycle (light on from 8 a.m. to 8 p.m.). The rats were fed UAR (Epinay Orge, France) laboratory chow and had free access to tap water. The rats were caged for 5 days before surgery.
(§3) Under light ether anesthesia, carotid arteries were isolated and loosely surrounded by a thread. Twenty-four hours later, reversible incomplete forebrain ischemia was produced by bilateral common carotid artery occlusion combined with sodium nitroprusside-induced arterial hypotension (1.1 mg/rat s.c.). Mean arterial blood pressure (MABP) was lowered and maintained nearby 6.6 kPa for 45 min. Then it gruadually returned to normal within the 60th minute when carotid occlusion was removed.
Immediately after the last retention trial, i.e. 77 hours post-oligohaemia, rats were sacrificed by decapitation, their brains rapidly removed and macroscopically examined in terms of swelling. Brain water content was determined by the method wet weight/dry weight.

post-oligaemic rats [3] = assay: One-trial passive avoidance task (retention of conditioned response); type: in vivo, Sprague-Dawley (Iffa Credo) male rats
Description: as §1, §2, §3
The functional aspects of the cerebral ischemic injury were assessed by a one trial learning procedure (passive avoidance reaction) as originally described by Kurtz K. H. e Pearl J.: The effects of prior fear experience in acquired drive learning. J. Comp. Physiol, Psychol, 1960, 53 : 201-206, and more extensively developed by Buresova et al.: Effect of atropine on learning, extinction, retention and retrieval in rats. Psychopharmacologia, 1964, 5 : 255-263.
Four hours after clipping-off untreated post-oligaemic rats were placed into an apparatus consisting of a large illuminated compartment (40 x 40 cm) connected by an opening to a small dark compartment (10 x 10 cm) with an electrified grid floor. The animals placed into the large compartment were allowed to explore the apparatus for three minutes. The latency to enter and the time spent in the small compartment were measured with a stop watch. Habituation to the experimental conditions was repeated 24 and 29 hours after ischemia. At the end of the third habituation trial, the opening between the two compartments was closed and the rat, placed into the small compartment, received intermittent electrical foot-shocks for one minute. The retention of the passive avoidance towards the small compartment was tested 24 and 48 hours after the last habituation trial i.e. 53 and 77 hours post-oligohaemia, respectively. The criterion used to determine whether an animal was conditioned was based upon the rat remaining in the large illuminated compartment for 180 sec. without entry into the small dark compartment.

post-oligaemic rats [4] = assay: Death rate after transient forebrain oligohaemia; type: in vivo, Sprague-Dawley (Iffa Credo) male rats
Description: as §1, §2, §3

CC(CC(=O)O)OC(=O)CC(O)C[N+](C)(C)C (racemic) [ST 784, ester of R(-)-carnitine chloride with R,S(±)beta-hydroxybutyric acid]
decrease in transaminases [1]: > 60%

CC(=O)O[C@H](CC(=O)[O-])C[N+](C)(C)C [Acetyl (R)(-)-carni-tine, acetyl (R)(-)-carnitine, reference compound]
Incidence of cerebral oedema upon excision (3) (post-oligaemic rats [2]; 12,5 mg. kg i.p. twice a day): 80,0 | Incidence of cerebral oedema upon excision (3) (post-oligaemic rats [2]; 25,0 mg. kg i.p. twice a day): 60,0 | Incidence of cerebral oedema upon excision (3) (post-oligaemic rats [2]; 50,0 mg. kg i.p. twice a day): 90,0 | Incidence of retention of conditioned response (%) (post-oligaemic rats [3]; 12,5 mg. kg i.p. twice a day, + 53 h): 80,0% | Incidence of retention of conditioned response (%) (post-oligaemic rats [3]; 12,5 mg. kg i.p. twice a day, + 77 h): 80,0% | Incidence of retention of conditioned response (%) (post-oligaemic rats [3]; 25,0 mg. kg i.p. twice a day, + 53 h): 60,0% | Incidence of retention of conditioned response (%) (post-oligaemic rats [3]; 25,0 mg. kg i.p. twice a day, + 77 h): 70,0% | Incidence of retention of conditioned response (%) (post-oligaemic rats [3]; 50,0 mg. kg i.p. twice a day, + 53 h): 70,0% | Incidence of retention of conditioned response (%) (post-oligaemic rats [3]; 50,0 mg. kg i.p. twice a day, + 77 h): 50,0% | Death rate after 72 hours (%) (post-oligaemic rats [4]; 12,5 mg. kg i.p. twice a day): 33,3% | Death rate after 72 hours (%) (post-oligaemic rats [4]; 25,0 mg. kg i.p. twice a day): 41,2% | Death rate after 72 hours (%) (post-oligaemic rats [4]; 50,0 mg. kg i.p. twice a day): 50,0%

ester of isovaleryl (R)(-)-carnitine chloride with (R,S)(±)-beta-hydroxybutyric acid [ST 687]
Incidence of cerebral oedema upon excision (3) (post-oligaemic rats [2]; 2,5 mg. kg i.p. twice a day): 80,0 | Incidence of cerebral oedema upon excision (3) (post-oligaemic rats [2]; 5,0 mg. kg i.p. twice a day): 50,0 | Incidence of cerebral oedema upon excision (3) (post-oligaemic rats [2]; 7,5 mg. kg i.p. twice a day): 66,7 | Incidence of retention of conditioned response (%) (post-oligaemic rats [3]; 2,5 mg. kg i.p. twice a day, + 53 h): 20,0% | Incidence of retention of conditioned response (%) (post-oligaemic rats [3]; 2,5 mg. kg i.p. twice a day, + 77 h): 40,0% | Incidence of retention of conditioned response (%) (post-oligaemic rats [3]; 5,0 mg. kg i.p. twice a day, + 53 h): 60,0% | Incidence of retention of conditioned response (%) (post-oligaemic rats [3]; 5,0 mg. kg i.p. twice a day, + 77 h): 60,0% | Incidence of retention of conditioned response (%) (post-oligaemic rats [3]; 7,5 mg. kg i.p. twice a day, + 53 h): 53,3% | Incidence of retention of conditioned response (%) (post-oligaemic rats [3]; 7,5 mg. kg i.p. twice a day, + 77 h): 66,7% | Death rate after 72 hours (%) (post-oligaemic rats [4]; 2,5 mg. kg i.p. twice a day): 47,4% | Death rate after 72 hours (%) (post-oligaemic rats [4]; 5,0 mg. kg i.p. twice a day): 37,5% | Death rate after 72 hours (%) (post-oligaemic rats [4]; 7,5 mg. kg i.p. twice a day): 62,5%
